{"source": "patent US20040034206A1", "about": "“Combination therapy for RNA virus infections involving ribavirin and IMPDH inhibitors” (priority 2002, published 2004)", "key": {"[1]": {"system": "HCV subgenomic replicon (clone 16) in Huh-7 cells", "assay_type": "cell-based, Hepatitis C Virus", "description": "We examined the mutagenic effect of ribavirin and other IMPDH inhibitors on HCV using the recently developed HCV replicon system. See German Patent No. DE19915178A1 to Bartenschlager, the disclosure of which is hereby incorporated by reference in its entirety. In the replicon system, an autonomously replicating clone of HCV comprising HCV 5′-NTR (NTR non translated region), NS3, NS4A, NS4B, NS5A, NS5B and a neomycin selectable marker gene that is linked to the HCV genes is inserted into human hepatoma cell line known as Huh-7 cells. The HCV-RNAs produced by the autonomously replicating clone of HCV in the Huh-7 cells are extracted and retransfected into naïve Huh-7 cells to evaluate the replication competence and efficiency of the HCV-RNA. Therefore, the effect of anti-viral treatments on the HCV-RNAs produced may be evaluated by growing the replicon cells in the presence or absence of such anti-viral treatments, then extracting the replicon RNA from treated cells and transfecting it into naive Huh 7 cells and measuring colony formation. The effect of the combination of ribavirin, and IMPDH inhibitors on HCV replication in vitro was evaluated using the replicon system as described below.\nHCV Cell Culture System. Human hepatoma cell line Huh-7 cells were grown in Dulbecco's modified minimal essential medium (DMEM, Cellgro) supplemented with 10% fetal bovine serum, 4 mM L-glutamine, non-essential amino acids, 10 mM HEPES, 0.075% sodium bicarbonate, 100 U/ml penicillin and 100 ug/ml streptomycin, and 1 mM sodium pyruvate. HCV subgenomic replicon (clone 16, containing NS5A S1I791 adaptive mutation as described in Blight et al., Science 290:1972 (2000)) was constructed by Schering-Plough Research Institute as described by R. Bartenschlager. See Lohmann, et al., Science 285:5424 (2000). The replicon-bearing Huh-7 cells were maintained in the same media as described above with 0.5 mg/ml G418 (Geneticin, Gibco-BRL).\nHCV RNA Replicon Copy Number measurement by Taqman assays. Replicon cells were seeded at 3000 cells per well in 96-well Bio-coated plates (Becton Dickinson) and allowed to adhere overnight. The next day the culture medium was replaced with 5% serum medium containing the experimental compound. After 72 hours the plate was harvested by aspirating medium, washing with PBS twice, and putting in […] cell lysis buffer (Ambion, catalog No. 8722). The plate was then heated at 75° C. for 5 min followed by freezing at −70° C. for 10 min. The cell lysate was then measured for HCV replicon copy number by one-step real-time RT-PCR (Taqman assay) using an ABI 7700 instrument. The primers, which correspond to HCV NS5B, are: forward, 5′-[…]-3′ (SEQ ID NO: 1), and reverse, 5′-[…]-3′ (SEQ ID NO: 2). The double fluorescence-labeled probe (5′-[…]-3′) (SEQ ID NO: 3) was purchased from Applied Biosystems (part No. P6448-6464). The cellular GAPDH (glyceraldehyde 3-phosphate dehydrogenase) mRNA from the same cell lysate was used as an internal control for cell number and metabolic status (primers/probes purchased from Perkin Elmer, part No. 4310859). Every experiment was performed in triplicate. The entire study was conducted independently two times.\nSpecific Colony Formation Efficiency (SCFE) determination. Replicon cells were loaded with compound(s) for 10 days under complete DMEM (without G418), with medium changes every 2-3 days. The total cytoplasmic RNA was extracted using RNA Easy kit from Qiagen (catalog No. 74104) and the RNA concentration was determined by absorbance at 260 nm. HCV replicon copy number in each RNA sample was determined by Taqman assay using a standard curve. For electroporation of RNA obtained from compound-treated replicon cells, 8 μg of total RNA suspended in 50 μl PBS was mixed with 50 μl suspension of 2×10^6 Huh-7 cells in a 0.1 cm cuvette (Bio-Rad, catalog No. 165-2089). As a control, wild type replicon RNA was serially diluted with total RNA from naïve Huh-7 cells."}, "[2]": {"conditions": "human, in vivo; cited from earlier work"}, "[3]": {"molecular_target": "inosine monophosphate dehydrogenase (IMPDH)", "conditions": "cited from J. Jain et al.; cited from earlier work"}, "Hepatitis C Virus": {"system": "Hepatitis C Virus", "conditions": "IFN-α monotherapy, chronic HCV infection, depending on genotype; cited from earlier work"}}, "note": "Like-named read-outs stand apart in the source and are kept apart here.", "data": [{"compound": "Nc1nc2c(ncn2[C@@H]2O[C@H](CO)[C@@H](O)[C@H]2O)c(=O)[nH]1", "note": "[Guan., guanosine]", "values": [{"measurement": "No. of Colonies", "setting": "[1]; 10 μM Guan.", "result": 210}, {"measurement": "Replicon Copy No.", "setting": "[1]; 10 μM Guan.", "result": "12 copies X 10^7/8 μg total RNA"}, {"measurement": "SCFE (Specific Colony Formation Efficiency)", "setting": "[1]; 10 μM Guan.", "result": "180 colonies/10^8 HCV RNA genomes"}]}, {"compound": "NC(=O)c1ncn([C@@H]2O[C@H](CO)[C@@H](O)[C@H]2O)n1", "note": "[ribavirin, 1-beta-D-Ribofuranosyl-1H-1,2,4-triazole-3-carboxamide]", "values": [{"measurement": "patients with reduction in hemoglobin of greater than 4 g/dl", "setting": "[2]", "result": 15.7, "unit": "%"}, {"measurement": "No. of Colonies", "setting": "[1]; 10 μM ribavirin", "result": 650}, {"measurement": "Replicon Copy No.", "setting": "[1]; 10 μM ribavirin", "result": "14 copies X 10^7/8 μg total RNA"}, {"measurement": "SCFE (Specific Colony Formation Efficiency)", "setting": "[1]; 10 μM ribavirin", "result": "480 colonies/10^8 HCV RNA genomes"}, {"measurement": "No. of Colonies", "setting": "[1]; 50 μM ribavirin", "result": 420}, {"measurement": "Replicon Copy No.", "setting": "[1]; 50 μM ribavirin", "result": "12 copies X 10^7/8 μg total RNA"}, {"measurement": "SCFE (Specific Colony Formation Efficiency)", "setting": "[1]; 50 μM ribavirin", "result": "360 colonies/10^8 HCV RNA genomes"}, {"measurement": "No. of Colonies", "setting": "[1]; 100 μM ribavirin", "result": 110}, {"measurement": "Replicon Copy No.", "setting": "[1]; 100 μM ribavirin", "result": "6 copies X 10^7/8 μg total RNA"}, {"measurement": "SCFE (Specific Colony Formation Efficiency)", "setting": "[1]; 100 μM ribavirin", "result": "200 colonies/10^8 HCV RNA genomes"}, {"measurement": "reduction in the fitness of the replicon (specific colony formation efficiency)", "setting": "[1]; 100 μM ribavirin alone", "result": "~4", "unit": "fold"}]}, {"compound": "COc1cc(NC(=O)Nc2cccc(CNC(=O)O[C@H]3CCOC3)c2)ccc1-c1cnco1", "note": "[IMPDH-I, (S)-N-3-[3-(3-methoxy-4-oxazol-5-yl-phenyl)ureido]-benzylcarbamic acid tetrahydrofuran-3-yl-ester]", "values": [{"measurement": "Ki", "setting": "[3]", "result": "~10", "unit": "nM"}, {"measurement": "No. of Colonies", "setting": "[1]; 100 nM IMPDH-I", "result": 370}, {"measurement": "Replicon Copy No.", "setting": "[1]; 100 nM IMPDH-I", "result": "10 copies X 10^7/8 μg total RNA"}, {"measurement": "SCFE (Specific Colony Formation Efficiency)", "setting": "[1]; 100 nM IMPDH-I", "result": "360 colonies/10^8 HCV RNA genomes"}, {"measurement": "effect on the replicon", "setting": "[1]; 100 nM IMPDH-I alone, Example 5", "result": "only a marginal effect"}]}, {"compound": "interferon-alpha", "values": [{"measurement": "response rate", "setting": "Hepatitis C Virus", "result": "about 25%"}]}, {"compound": "COc1c(C)c2c(c(O)c1C/C=C(\\C)CCC(=O)O)C(=O)OC2", "note": "[MPA, mycophenolic acid]", "values": [{"measurement": "No. of Colonies", "setting": "[1]; 2 μM MPA", "result": 470}, {"measurement": "Replicon Copy No.", "setting": "[1]; 2 μM MPA", "result": "9 copies X 10^7/8 μg total RNA"}, {"measurement": "SCFE (Specific Colony Formation Efficiency)", "setting": "[1]; 2 μM MPA", "result": "510 colonies/10^8 HCV RNA genomes"}]}]}
